In the test the target is T1, Recombinant (1-346) HPK1 (h) (Homo sapiens, UniProt Q92918).
T1 construct: Recombinant (1-346) HPK1 (h) is incubated with 8 mM MOPS pH 7.0
T1 sequence (Q92918 1-346): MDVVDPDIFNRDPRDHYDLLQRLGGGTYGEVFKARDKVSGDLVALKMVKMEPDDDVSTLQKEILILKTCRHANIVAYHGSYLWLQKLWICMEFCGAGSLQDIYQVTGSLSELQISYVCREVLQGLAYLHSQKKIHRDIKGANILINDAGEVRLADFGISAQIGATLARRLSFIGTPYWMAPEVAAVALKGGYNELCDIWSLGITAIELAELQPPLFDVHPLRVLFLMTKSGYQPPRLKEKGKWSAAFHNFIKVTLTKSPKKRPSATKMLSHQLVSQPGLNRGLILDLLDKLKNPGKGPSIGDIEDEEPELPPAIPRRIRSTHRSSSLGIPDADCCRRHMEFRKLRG
In words: HPK1 human STE kinase enzymatic radiometric assay. It is filed as biochemical. The following applies: read-out: HPK1 IC50 nM Range. The gist of the method: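 Recombinant HPK1 (1-346) incubated 40 min at RT with 0.33 mg/mL myelin basic protein and [gamma-33P]-ATP in 8 mM MOPS pH 7.0, 0.2 mM EDTA, 10 mM Mg acetate; reaction started with Mg/ATP. Stopped with 0.5% phosphoric acid, spotted on P30 filtermat, washed, scintillation counted. Compounds tested as 9-point 3-fold dilutions.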
As a reminder, the IC50 is the concentration at which inhibition is half-maximal. In the case of `Nc1nc(F)c(-c2ccc(N3CCOCC3)c(CN3CCCC3)c2)nc1-c1cc(F)c2c(c1)CCNC2=O` [Example I-112, 6-(3-amino-5-fluoro-6-(4-morpholino-3-(pyrrolidin-1-ylmethyl)phenyl)pyrazin-2-yl)-8-fluoro-3,4-dihydroisoquinolin-1(2H)-one], the IC50 was 0.1 to 10 nM.
The result for `Nc1nc(F)c(-c2ccc(N3CCOCC3)c(CN3CCC3)c2)nc1-c1ccc2c(=O)[nH]cc(F)c2c1` [Example I-199, 6-(3-amino-6-(3-(azetidin-1-ylmethyl)-4-morpholinophenyl)-5-fluoropyrazin-2-yl)-4-fluoroisoquinolin-1(2H)-one] reads 0.1 to 10 nM; that for `Nc1nc(F)c(-c2ccc(N3CCN(CC4CC4)CC3)cc2)nc1-c1ccc2c(c1)C1(CC1)CNC2=O` [Example I-108, 6′-(3-amino-6-(4-(4-(cyclopropylmethyl)piperazin-1-yl)phenyl)-5-fluoropyrazin-2-yl)-2′,3′-dihydro-1′H-spiro[cyclopropane-1,4′-isoquinolin]-1′-one], 0.1 to 10 nM; that for `C[C@H]1CCCN1Cc1cc(-c2nc(-c3cc(F)c4c(c3)CCNC4=O)c(N)nc2F)ccc1C1CCOCC1` [Example I-220, (S)-6-(3-amino-5-fluoro-6-(3-((2-methylpyrrolidin-1-yl)methyl)-4-(tetrahydro-2H-pyran-4-yl)phenyl)pyrazin-2-yl)-8-fluoro-3,4-dihydroisoquinolin-1(2H)-one], 11 to 100 nM.
Next, `CN1CC2(CCN(c3ccc(-c4nc(-c5cc6c(cc5F)C(=O)NCC6)c(N)nc4F)cc3)CC2)C1` [Example I-61, 6-(3-amino-5-fluoro-6-(4-(2-methyl-2,7-diazaspiro[3.5]nonan-7-yl)phenyl)pyrazin-2-yl)-7-fluoro-3,4-dihydroisoquinolin-1(2H)-one]: 0.1 to 10 nM.
With `Cc1nc2cc(-c3nc(-c4ccc(N5CCN(C(C)C)CC5)cc4)c(F)nc3N)c(F)cc2c(=O)[nH]1` [Example I-63, 7-(3-amino-5-fluoro-6-(4-(4-isopropylpiperazin-1-yl)phenyl)pyrazin-2-yl)-6-fluoro-2-methylquinazolin-4(3H)-one], the IC50 fell in the range of 0.1 to 10 nM.
Consider `CO[C@@H]1CCN(Cc2cc(-c3nc(-c4cc5c(cc4F)C(=O)NCC5)c(N)nc3F)ccc2N2CCOCC2)C1` [Example I-152, (R)-6-(3-amino-5-fluoro-6-(3-((3-methoxypyrrolidin-1-yl)methyl)-4-morpholinophenyl)pyrazin-2-yl)-7-fluoro-3,4-dihydroisoquinolin-1(2H)-one], for which the IC50 was in the range of 0.1 to 10 nM.
In the case of `Cc1cc(-c2nc(-c3ccc4c(c3)CCNC4=O)c(N)nc2F)cc2c1CCN(C)C2` [Example I-294, 6-(3-amino-6-(2,5-dimethyl-1,2,3,4-tetrahydroisoquinolin-7-yl)-5-fluoropyrazin-2-yl)-3,4-dihydroisoquinolin-1(2H)-one], the half-maximal inhibitory concentration (IC50) fell in the range of 0.1 to 10 nM.
Next, `CC1NC(=O)c2c(F)cc(-c3nc(-c4ccc([C@]56C[C@H]5CN(C5CCC5)C6)cc4)c(F)nc3N)cc2C1(F)F` (stereo partly drawn) [Example I-195, 6-(3-amino-6-(4-((1S,5R)-3-cyclobutyl-3-azabicyclo[3.1.0]hexan-1-yl)phenyl)-5-fluoropyrazin-2-yl)-4,4,8-trifluoro-3-methyl-3,4-dihydroisoquinolin-1(2H)-one]: 11 to 100 nM; `Cc1[nH]c(=O)c2c(F)cc(-c3nc(-c4ccc(N5CCOCC5)c(CN(C)C)c4)c(F)nc3N)cc2c1F` [Example I-116, 6-(3-amino-6-(3-((dimethylamino)methyl)-4-morpholinophenyl)-5-fluoropyrazin-2-yl)-4,8-difluoro-3-methylisoquinolin-1(2H)-one]: 0.1 to 10 nM; `CN(C)[C@@H]1COc2ccc(-c3nc(-c4cc(F)c5c(c4)CCNC5=O)c(N)nc3F)cc21` [Example I-254, (S)-6-(3-amino-6-(3-(dimethylamino)-2,3-dihydrobenzofuran-5-yl)-5-fluoropyrazin-2-yl)-8-fluoro-3,4-dihydroisoquinolin-1(2H)-one]: 11 to 100 nM.
`CC1NC(=O)c2c(F)cc(-c3nc(-c4ccc([C@]56C[C@H]5CN(C)C6)cc4)c(F)nc3N)cc2C1(F)F` (stereo partly drawn) [Example I-135, 6-(3-amino-5-fluoro-6-(4-((1S,5R)-3-methyl-3-azabicyclo[3.1.0]hexan-1-yl)phenyl)pyrazin-2-yl)-4,4,8-trifluoro-3-methyl-3,4-dihydroisoquinolin-1(2H)-one]: the IC50 was in the range of 11 to 100 nM.
Turning to `Cc1[nH]c(=O)c2c(F)cc(-c3nc(-c4ccc(N5CCN(CC6CC6)CC5)cc4)c(F)nc3N)cc2c1F` [Example I-115, 6-(3-amino-6-(4-(4-(cyclopropylmethyl)piperazin-1-yl)phenyl)-5-fluoropyrazin-2-yl)-4,8-difluoro-3-methylisoquinolin-1(2H)-one], the IC50 lay within 0.1 to 10 nM.
The result for `Nc1nc(F)c(-c2ccc(N3CCN(CCCC(F)F)CC3)cc2)nc1-c1cc(F)c2c(c1)CCNC2=O` [Example I-137, 6-(3-amino-6-(4-(4-(4,4-difluorobutyl)piperazin-1-yl)phenyl)-5-fluoropyrazin-2-yl)-8-fluoro-3,4-dihydroisoquinolin-1(2H)-one] reads 0.1 to 10 nM; that for `CN(C)Cc1cccc(-c2nc(-c3cc4c(cc3F)C(=O)NCC4)c(N)nc2F)c1` [Example I-278, 6-(3-amino-6-(3-((dimethylamino)methyl)phenyl)-5-fluoropyrazin-2-yl)-7-fluoro-3,4-dihydroisoquinolin-1(2H)-one], 11 to 100 nM.
Next, `Cc1c[nH]c(=O)c2ccc(-c3nc(-c4ccc(F)c(CN(C)C)c4)c(F)nc3N)cc12` [Example I-275, 6-(3-amino-6-(3-((dimethylamino)methyl)-4-fluorophenyl)-5-fluoropyrazin-2-yl)-4-methylisoquinolin-1(2H)-one]: 11 to 100 nM.
Next, `Cc1nc2cc(-c3nc(-c4ccc(C5CCOCC5)c(CN5CCC[C@H]5C)c4)c(F)nc3N)cc(F)c2c(=O)[nH]1` [Example I-217, (R)-7-(3-amino-5-fluoro-6-(3-((2-methylpyrrolidin-1-yl)methyl)-4-(tetrahydro-2H-pyran-4-yl)phenyl)pyrazin-2-yl)-5-fluoro-2-methylquinazolin-4(3H)-one]: 11 to 100 nM.
`COC1CCN(Cc2cc(-c3nc(-c4cc5c(cc4F)C(=O)NCC5)c(N)nc3F)ccc2N2CCOCC2)C1` (centres unmarked) [Example I-134, 6-(3-amino-5-fluoro-6-(3-((3-methoxypyrrolidin-1-yl)methyl)-4-morpholinophenyl)pyrazin-2-yl)-7-fluoro-3,4-dihydroisoquinolin-1(2H)-one]: the IC50 fell in the range of 0.1 to 10 nM.
With `C[C@H]1CN(c2ccc(-c3nc(-c4cc5c(cc4F)C(=O)NCC5)c(N)nc3F)cc2CN2CCC2)CCO1` [Example I-215, (S)-6-(3-amino-6-(3-(azetidin-1-ylmethyl)-4-(2-methylmorpholino)phenyl)-5-fluoropyrazin-2-yl)-7-fluoro-3,4-dihydroisoquinolin-1(2H)-one], the half-inhibitory concentration (IC50) fell in the range of 0.1 to 10 nM.
Next, `Nc1nc(F)c(-c2ccc(OC3CCOCC3)c(CN3CCC3)c2)nc1-c1cc(F)c2c(c1)CCNC2=O` [Example I-210, 6-(3-amino-6-(3-(azetidin-1-ylmethyl)-4-((tetrahydro-2H-pyran-4-yl)oxy)phenyl)-5-fluoropyrazin-2-yl)-8-fluoro-3,4-dihydroisoquinolin-1(2H)-one]: 11 to 100 nM.

Values taken from patent US20240425479A1, “HALO-SUBSTITUTED AMINO AZA-HETEROARYL COMPOUNDS AS INHIBITORS OF THE HAEMATOPOIETIC PROGENITOR KINASE 1 (HPK1)” (priority 2021, published 2024).
